In patent US20070111966A1, “Method for the treatment and/or prevention of urinary disorders” (priority 2005, published 2007):

Legend:
[1] = system: Sprague-Dawley rats; test: Example 1: diuresis after oral gavage of diuretic polyols; format: in vivo; conditions: for Diuresis 45 min / Diuresis 1 h 35 min / Diuresis 3 h / Diuresis 5 h / Diuresis 7 h / Cumulative diuresis over 24 h / Diuresis Before gavage: means on ten rats; for Diuresis 45 min: control A 0.9; for Diuresis 1 h 35 min / Diuresis 7 h: control A 0.6; for Diuresis 3 h: control A 0.4; for Diuresis 5 h: control A 0.7; for Cumulative diuresis over 24 h: control A 11.7; for Diuresis Before gavage: control A 3.2
Procedure: (§1) A batch of rats were orally administered doses of diuretic polyols so as to measure the diuretic effect of said polyols and their possible influence on the amount of water drunk. The study was carried out on a batch of thirty rats, for 4 days, and the trial doses were administered at a rate of 2 ml per animal and per day of solutions at 250 g/litre of polyols. Water is distributed to the animals ad libitum. The amounts of urine output and of drink consumed are measured by weighing.
(§2) The amounts of drink are expressed in grams per animal and per day. Diuresis is expressed in millilitres as a function of time. • Batch A: control batch • Batch B: erythritol gavage • Batch C: mannitol gavage • Batch D: isosorbide gavage • Batch E: 1/1 isosorbide-mannitol mixture
Diuresis (Means on Ten Rats, in Millilitres)

[2] = system: Sprague-Dawley rats; test: Example 1: consumption of drink after oral gavage of diuretic polyols; format: in vivo; conditions: for water consumption compared with the control (in words): after polyol gavage; for water consumption over four days: control batch A 11.2
Procedure: as §1, §2
Consumption of Drink (Means on Ten Rats)

[3] = gavage 2 ml per animal and per day of 250 g/litre solution, means on ten rats

Row | Compound | Diuresis 45 min [1] [millilitres] | Diuresis 1 h 35 min [1] [millilitres] | Diuresis 3 h [1] [millilitres] | Diuresis 5 h [1] [millilitres] | Diuresis 7 h [1] [millilitres] | Cumulative diuresis over 24 h [1] [millilitres] | time from which an increase in diuresis is observed ([1]; after gavage) [h] | Diuresis Before gavage [1] [millilitres] | water consumption compared with the control (in words) [2] | water consumption ([2]; gavage 2 ml per animal and per day of 250 g/litre solution, means on ten rats, control batch A 24.8) [g/animal/day] | water consumption over four days [2, 3] [g/animal/day]
1 | OC[C@@H](O)[C@@H](O)CO [B (erythritol), erythritol] | 0.21 | 0.99 | 1.38 | 1.21 | 0.83 | 18.43 | ≥ 3 | 1.02 | not greater than the control | 17.9 | –
2 | OC[C@@H](O)[C@@H](O)[C@H](O)[C@H](O)CO [C (mannitol), mannitol] | 0.3 | 0.3 | 0.7 | 0.5 | 1.3 | 16.5 | – | 3.0 | very slightly greater than the control | – | 13.9
3 | O[C@@H]1CO[C@H]2[C@@H]1OC[C@@H]2O [D (isosorbide), isosorbide] | 1.5 | 1.1 | 1.2 | 1.1 | 0.6 | 13.0 | – | 2.4 | very slightly greater than the control | – | 13.1
